Results as given in patent publication US4701325A, “Injectable aqueous solution containing hydrogensulfite and/or sulfite and anticancerous benzodiazepine compound” (priority 1983, dated 1987).
Structures can show the parent of a compound that is named as a salt.

How the values were obtained:
[1] = tested on: ear vein of white rabbits; test: Tissue injury (edema ratio) after intravenous administration into the ear vein of rabbits for 5 days; assay type: in vivo; conditions: ear vein once a day for 5 days; measured 4 days after final administration; compound B 0.16 mg/Kg/day, NaHSO3 1.6 mg/Kg/day
Experimental: The same materials as those in Example 1 were used to determine the effect thereof administered to white rabbits (male, 2.0-2.3 kg) in groups of four in the ear vein once a day for consective 5 days. The material adminitered to the respective groups was (1) physiological saline, or (2) 0.16 mg of the compound B/Kg/day, (3) 0.16 mg of the compound B+1.6 mg of NaHSO3 /Kg/day or (4) 1.6 mg of NaHSO3 /Kg/day. The solution volumes to be administered were all fixed at 0.5 ml/Kg/day which contains respective material or materials in the above dosage.
For confirmation of the effect, the appearance was observed and the thickness at the administration site was measured 4 days after the final administration to serve as the index of tissue injury.
The edema ratio was determined according to the following equation. [formula]

[2] = Stability of compound B in aqueous solution of NaHSO3 or Na2SO3 by HPLC; assay type: physicochemical; conditions: 3 hours at room temperature, 0.2 mg/ml compound B, Sample: with 2.0 mg/ml NaHSO3 or Na2SO3, read-out: Ratio of remaining compound B
Experimental: It was confirmed that the stability of the compound B was not affected when an aqueous solution of NaHSO3 or Na2 SO3 was used as the dissolving medium of the compound B. In a sample of 10 ml of an aqueous solution containing 0.2 mg of the compound B and 2.0 mg of NaHSO3 or Na2 SO3 in 1 ml thereof, analysis was made on high-performance liquid chromatography just after dissolving the compound B and after standing the solution for 3 hours at room temperature, to examine the stability of the compound B. The results are as shown in Table 3.

[3] = tested on: p 388 leukemia; test: Antitumor activity in p 388 leukemia cancer-bearing BDF1 mice; assay type: in vivo; conditions: i.v. once a day for 4 days, compound B 2 mg/Kg/day, NaHSO3 or Na2SO3 20 mg/kg/day
Experimental: By the comparative examintion of mean survival days of the mice, index of life saving was calculated by the equation below: [formula]

[4] = Acute toxicity (LD50) in ddY strain mice; assay type: in vivo; conditions: mouse, in vivo, iv, male ddY mice 18-20 g; combination with 10 times amount of NaHSO3
Experimental: (§1) The materials were administered to ddY strain mice (male, 18-20 g) intravenously to determine the LD50 (mg/Kg). […] Incidentally, NaHSO3 or Na2 SO 3 itself is a substance prescribed in Japanese Parmacopoeia and its safety has been established already.

[5] = tested on: ddY strain mice; test: Acute toxicity (LD50) in ddY strain mice; assay type: in vivo; conditions: i.v., mice; 10 times amount of NaHSO3
Experimental: as §1

With `Cc1ccc2c(c1O)NC(S(=O)O)C1CC(/C=C/C(N)=O)=CN1C2=O` (stereo not shown) [Compound B, sodium salt of 5,10,11,11a-terahydro-9-hydroxy-8-methyl-5-oxo-11-sulfino-1H-pyrrolo[2,1-c][1,4]benzodiazepin-2-acrylamide] the “Edema ratio (%)” value [1] was 169.4%, the remaining at 3 h [2] was 100% and the Mean survival day ([3]; control 10 days) was 18.0 days. The “Index of life saving (%)” value ([3]; relative to physiological saline) was 80% and the LD50 [4] was 6.23 mg/kg.
With `O=S([O-])O.[Na+]` [NaHSO3, sodium hydrogensulfite, reference compound] the “Edema ratio (%)” value [1] was 0.0% and the “Effect on acute toxicity of the compound B (in words)” value [5] was “did not affect the acute toxicity of the compound B at all”.
